Active and inactive are the calls of the source.
Legend:
[1] = target: Lysosomal acid glucosylceramidase (Homo sapiens, UniProt P04062); experiment: Dose response cell-based high throughput screening assay to identify enhancers of beta-glucosidase activity. [Related pubchem assays: 784 ]; type: functional
[2] = target: Voltage-dependent T-type calcium channel subunit alpha-1H (Homo sapiens, UniProt O95180); type: functional;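 also: channel activity triggered by adding a high calcium stimulation buffer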
[3] = target: Ion channel NompC (Danio rerio, UniProt Q7T1G6); experiment: Fluorescence counterscreen assay for TRPML3 agonists: dose response cell-based high-throughput screening assay to identify agonists of the transient receptor potential channel N1 (TRPN1). [Related pubchem assays: 1526, 1424, 1448 ]; type: functional
[4] = target: T1, Mucolipin-3 (Homo sapiens, UniProt Q8TDD5); experiment: Dose response cell-based high-throughput screening assay for agonists of the transient receptor potential channel ML3 (TRPML3). [Related pubchem assays: 1526, 1424, 1448 ]; type: functional
T1 sequence (Q8TDD5 whole entry): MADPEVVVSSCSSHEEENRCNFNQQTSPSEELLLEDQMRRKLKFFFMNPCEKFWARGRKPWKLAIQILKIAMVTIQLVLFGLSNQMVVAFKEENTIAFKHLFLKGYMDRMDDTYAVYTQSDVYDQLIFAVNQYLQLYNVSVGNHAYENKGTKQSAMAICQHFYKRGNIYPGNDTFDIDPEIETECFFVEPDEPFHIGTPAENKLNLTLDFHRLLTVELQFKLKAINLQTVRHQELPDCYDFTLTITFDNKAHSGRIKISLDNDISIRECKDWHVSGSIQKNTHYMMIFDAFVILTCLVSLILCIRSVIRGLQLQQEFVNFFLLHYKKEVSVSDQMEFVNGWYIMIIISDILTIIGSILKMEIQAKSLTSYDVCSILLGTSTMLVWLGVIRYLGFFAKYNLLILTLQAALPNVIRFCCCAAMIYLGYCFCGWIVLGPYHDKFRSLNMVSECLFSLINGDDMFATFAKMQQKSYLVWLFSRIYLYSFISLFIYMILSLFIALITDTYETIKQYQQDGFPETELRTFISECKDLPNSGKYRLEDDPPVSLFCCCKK

[5] = target: Aminopeptidase N (Plasmodium falciparum FcB1/Columbia, UniProt O96935); experiment: P. falciparum M1AAP inhibitors, biochemical, fluorogenic H-Leu-NHMec substrate, 1536-well (AID 1445); parameters: species or system Plasmodium falciparum 3D7, 3D7
[6] = target: Nonstructural protein 1 (Influenza A virus, UniProt Q194T2); type: functional, Influenza A virus (A/California/07/2009(H1N1))
[7] = target: T2, Carboxy-terminal domain RNA polymerase II polypeptide A small phosphatase 1 (Homo sapiens, UniProt Q9GZU7); experiment: inhibitors of CTDSP1, concentration-response testing, biochemical assay, absorbance-based, actives from ultra-high-throughput screening (AID 540297); type: functional
T2 sequence (Q9GZU7 whole entry): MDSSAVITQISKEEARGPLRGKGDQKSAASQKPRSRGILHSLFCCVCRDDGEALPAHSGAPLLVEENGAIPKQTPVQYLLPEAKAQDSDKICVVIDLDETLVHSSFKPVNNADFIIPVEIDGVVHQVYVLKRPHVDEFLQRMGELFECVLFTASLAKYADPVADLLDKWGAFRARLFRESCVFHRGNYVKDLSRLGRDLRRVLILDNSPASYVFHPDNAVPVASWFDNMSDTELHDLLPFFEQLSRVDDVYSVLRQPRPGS

[8] = target: Sphingosine 1-phosphate receptor 1 (Homo sapiens, UniProt P21453); type: functional;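 also: Tango beta-arrestin reporter U2OS cells stimulated with S1P near its EC80; inhibitor potency meaning antagonism of receptor activation by the natural agonist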
[9] = target: T3, Sphingosine 1-phosphate receptor 4 (Homo sapiens, UniProt O95977); experiment: Fluorescence dose response cell-based high throughput screening assay for antagonists of the Sphingosine 1-Phosphate Receptor 4 (S1P4). [Related pubchem assays: 1524 (Confirmation in triplicates.), 1510 (Primary screen.)]; type: functional
T3 sequence (O95977 whole entry): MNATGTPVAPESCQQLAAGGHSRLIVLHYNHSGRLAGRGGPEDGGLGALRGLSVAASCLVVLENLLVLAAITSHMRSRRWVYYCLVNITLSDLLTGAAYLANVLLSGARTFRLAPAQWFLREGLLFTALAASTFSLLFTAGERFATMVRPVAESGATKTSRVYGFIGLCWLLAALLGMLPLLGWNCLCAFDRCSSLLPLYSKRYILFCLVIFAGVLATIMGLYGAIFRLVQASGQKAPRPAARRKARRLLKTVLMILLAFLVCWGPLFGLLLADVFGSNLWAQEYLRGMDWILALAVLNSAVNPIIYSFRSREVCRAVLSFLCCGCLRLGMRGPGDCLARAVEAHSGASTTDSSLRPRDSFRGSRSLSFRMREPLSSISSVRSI

[10] = target: T4, Replicative DNA helicase DnaB (Mycobacterium tuberculosis, UniProt P9WMR3); experiment: DnaB intein splicing inhibitors, dose response, biochemical, cell-free fluorescence (AID 449749); type: functional
T4 sequence (P9WMR3 whole entry): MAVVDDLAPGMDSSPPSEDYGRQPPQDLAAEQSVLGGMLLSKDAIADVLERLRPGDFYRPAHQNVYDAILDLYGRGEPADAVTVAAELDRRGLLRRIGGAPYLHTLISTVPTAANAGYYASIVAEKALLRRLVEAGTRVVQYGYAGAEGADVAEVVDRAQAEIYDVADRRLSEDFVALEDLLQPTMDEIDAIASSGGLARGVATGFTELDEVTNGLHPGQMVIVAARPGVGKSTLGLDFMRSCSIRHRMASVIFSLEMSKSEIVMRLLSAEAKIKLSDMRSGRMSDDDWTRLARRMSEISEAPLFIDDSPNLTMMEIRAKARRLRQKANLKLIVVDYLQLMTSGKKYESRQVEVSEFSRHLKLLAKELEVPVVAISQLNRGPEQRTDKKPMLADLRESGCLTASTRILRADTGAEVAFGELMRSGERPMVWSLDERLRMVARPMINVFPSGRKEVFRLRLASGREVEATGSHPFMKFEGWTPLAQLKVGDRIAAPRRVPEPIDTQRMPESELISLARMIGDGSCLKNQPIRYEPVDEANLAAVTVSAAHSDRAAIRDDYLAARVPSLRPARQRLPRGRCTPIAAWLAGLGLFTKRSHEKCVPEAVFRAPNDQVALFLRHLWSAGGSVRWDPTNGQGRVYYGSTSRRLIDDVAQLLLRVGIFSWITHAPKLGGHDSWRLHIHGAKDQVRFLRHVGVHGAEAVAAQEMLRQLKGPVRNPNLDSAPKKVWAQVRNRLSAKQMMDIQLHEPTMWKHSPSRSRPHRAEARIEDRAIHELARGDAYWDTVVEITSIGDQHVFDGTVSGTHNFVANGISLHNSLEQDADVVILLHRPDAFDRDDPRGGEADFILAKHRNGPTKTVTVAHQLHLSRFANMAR

[11] = C. albicans growth with fluconazole, confirmation, fluorescence, retest (AID 2467); type: functional, cell-based
[12] = target: T5, Heat shock factor protein 1 (Mus musculus, UniProt P38532); experiment: HSF1 potentiators in luciferase reporter cells, confirmation, cell-based, NIH3T3, luminescence, dose retest (AID 435004); type: functional;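 also: stress induced by proteasome inhibitor MG132 added 30 min after compound; luciferase reporter driven by HSF1 response element in NIH3T3 cells; actives raise luminescence as potentiators of the MG132 stress response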
T5 sequence (P38532 whole entry): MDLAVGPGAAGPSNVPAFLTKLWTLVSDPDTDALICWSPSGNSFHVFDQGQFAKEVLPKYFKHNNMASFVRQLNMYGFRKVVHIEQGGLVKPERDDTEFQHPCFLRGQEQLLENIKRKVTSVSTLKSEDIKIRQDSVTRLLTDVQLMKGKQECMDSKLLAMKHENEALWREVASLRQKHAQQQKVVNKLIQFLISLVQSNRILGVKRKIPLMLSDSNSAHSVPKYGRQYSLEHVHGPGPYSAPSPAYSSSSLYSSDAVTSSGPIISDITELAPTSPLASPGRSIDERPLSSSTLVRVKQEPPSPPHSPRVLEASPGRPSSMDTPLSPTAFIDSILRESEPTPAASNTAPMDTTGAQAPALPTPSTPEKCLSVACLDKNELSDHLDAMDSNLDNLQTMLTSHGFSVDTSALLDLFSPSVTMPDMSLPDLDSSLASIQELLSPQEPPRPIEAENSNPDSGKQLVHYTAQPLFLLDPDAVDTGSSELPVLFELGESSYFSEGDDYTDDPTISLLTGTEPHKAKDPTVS

[13] = target: T6, Protein RecA (Mycobacterium tuberculosis, UniProt P9WHJ3); experiment: Fluorescence Cell-Free Homogeneous Dose Retest to Identify Inhibitors of RecA-Intein Splicing Activity. [Related pubchem assays (depositor defined):AID2097, AID2223, AID489010, AID492950]; type: functional
T6 sequence (P9WHJ3 whole entry): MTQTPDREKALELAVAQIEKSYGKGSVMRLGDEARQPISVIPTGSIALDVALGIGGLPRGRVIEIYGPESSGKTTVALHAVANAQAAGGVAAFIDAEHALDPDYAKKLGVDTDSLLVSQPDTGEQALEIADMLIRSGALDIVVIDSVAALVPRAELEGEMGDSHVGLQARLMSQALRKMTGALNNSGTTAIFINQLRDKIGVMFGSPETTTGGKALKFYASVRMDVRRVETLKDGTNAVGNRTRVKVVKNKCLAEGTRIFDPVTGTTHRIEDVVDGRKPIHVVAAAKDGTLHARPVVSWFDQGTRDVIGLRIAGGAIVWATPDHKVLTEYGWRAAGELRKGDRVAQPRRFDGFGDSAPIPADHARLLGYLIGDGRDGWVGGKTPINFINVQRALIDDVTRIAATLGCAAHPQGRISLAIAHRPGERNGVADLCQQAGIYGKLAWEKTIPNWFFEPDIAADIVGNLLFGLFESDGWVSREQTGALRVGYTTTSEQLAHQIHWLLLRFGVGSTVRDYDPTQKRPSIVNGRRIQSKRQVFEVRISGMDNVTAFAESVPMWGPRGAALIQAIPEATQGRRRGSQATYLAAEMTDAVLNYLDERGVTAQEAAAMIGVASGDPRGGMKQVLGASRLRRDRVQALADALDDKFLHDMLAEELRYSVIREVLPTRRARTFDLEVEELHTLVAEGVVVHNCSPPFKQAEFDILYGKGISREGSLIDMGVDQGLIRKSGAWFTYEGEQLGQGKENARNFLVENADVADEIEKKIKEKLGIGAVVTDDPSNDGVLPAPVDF

[14] = NIH-3T3 fibroblast cytotoxicity, dose response, cytotoxicity control, cell-based, fluorescence, Alamar Blue, secondary assay (AID 2327); type: functional;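 also: NIH-3T3 mouse fibroblasts cultured with fluconazole at 8 µg/mL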
[15] = target: T7, Alkaline phosphatase, tissue-nonspecific isozyme (Homo sapiens, UniProt P05186)
T7 sequence (P05186 whole entry): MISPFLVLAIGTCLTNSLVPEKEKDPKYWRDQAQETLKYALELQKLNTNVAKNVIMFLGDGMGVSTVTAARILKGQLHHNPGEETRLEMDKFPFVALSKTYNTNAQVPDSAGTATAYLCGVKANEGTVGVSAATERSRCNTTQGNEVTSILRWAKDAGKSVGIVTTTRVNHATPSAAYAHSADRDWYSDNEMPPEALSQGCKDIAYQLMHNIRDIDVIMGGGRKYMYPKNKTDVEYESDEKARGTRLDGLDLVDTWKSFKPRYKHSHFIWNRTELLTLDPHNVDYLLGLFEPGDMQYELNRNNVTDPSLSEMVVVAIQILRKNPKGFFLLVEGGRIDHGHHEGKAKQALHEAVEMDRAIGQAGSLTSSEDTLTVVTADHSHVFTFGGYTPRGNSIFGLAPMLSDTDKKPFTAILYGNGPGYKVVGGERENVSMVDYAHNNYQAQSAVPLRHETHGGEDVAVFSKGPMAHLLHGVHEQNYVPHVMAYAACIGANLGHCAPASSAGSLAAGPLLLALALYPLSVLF

[16] = target: Procathepsin L (Homo sapiens, UniProt P07711)
[17] = target: Aspartyl aminopeptidase (Plasmodium falciparum 3D7, UniProt Q8I2J3)
[18] = tested on: Escherichia coli; experiment: microbe, parasite or virus in culture
[19] = A cytotoxicity screen of small molecule inhibitors of the PhoP region in Salmonella typhi identified in the primary screen. [Related pubchem assays: 1850, 1864, 1985 ]; type: functional

Ion channel NompC, sequence (Q7T1G6 whole entry): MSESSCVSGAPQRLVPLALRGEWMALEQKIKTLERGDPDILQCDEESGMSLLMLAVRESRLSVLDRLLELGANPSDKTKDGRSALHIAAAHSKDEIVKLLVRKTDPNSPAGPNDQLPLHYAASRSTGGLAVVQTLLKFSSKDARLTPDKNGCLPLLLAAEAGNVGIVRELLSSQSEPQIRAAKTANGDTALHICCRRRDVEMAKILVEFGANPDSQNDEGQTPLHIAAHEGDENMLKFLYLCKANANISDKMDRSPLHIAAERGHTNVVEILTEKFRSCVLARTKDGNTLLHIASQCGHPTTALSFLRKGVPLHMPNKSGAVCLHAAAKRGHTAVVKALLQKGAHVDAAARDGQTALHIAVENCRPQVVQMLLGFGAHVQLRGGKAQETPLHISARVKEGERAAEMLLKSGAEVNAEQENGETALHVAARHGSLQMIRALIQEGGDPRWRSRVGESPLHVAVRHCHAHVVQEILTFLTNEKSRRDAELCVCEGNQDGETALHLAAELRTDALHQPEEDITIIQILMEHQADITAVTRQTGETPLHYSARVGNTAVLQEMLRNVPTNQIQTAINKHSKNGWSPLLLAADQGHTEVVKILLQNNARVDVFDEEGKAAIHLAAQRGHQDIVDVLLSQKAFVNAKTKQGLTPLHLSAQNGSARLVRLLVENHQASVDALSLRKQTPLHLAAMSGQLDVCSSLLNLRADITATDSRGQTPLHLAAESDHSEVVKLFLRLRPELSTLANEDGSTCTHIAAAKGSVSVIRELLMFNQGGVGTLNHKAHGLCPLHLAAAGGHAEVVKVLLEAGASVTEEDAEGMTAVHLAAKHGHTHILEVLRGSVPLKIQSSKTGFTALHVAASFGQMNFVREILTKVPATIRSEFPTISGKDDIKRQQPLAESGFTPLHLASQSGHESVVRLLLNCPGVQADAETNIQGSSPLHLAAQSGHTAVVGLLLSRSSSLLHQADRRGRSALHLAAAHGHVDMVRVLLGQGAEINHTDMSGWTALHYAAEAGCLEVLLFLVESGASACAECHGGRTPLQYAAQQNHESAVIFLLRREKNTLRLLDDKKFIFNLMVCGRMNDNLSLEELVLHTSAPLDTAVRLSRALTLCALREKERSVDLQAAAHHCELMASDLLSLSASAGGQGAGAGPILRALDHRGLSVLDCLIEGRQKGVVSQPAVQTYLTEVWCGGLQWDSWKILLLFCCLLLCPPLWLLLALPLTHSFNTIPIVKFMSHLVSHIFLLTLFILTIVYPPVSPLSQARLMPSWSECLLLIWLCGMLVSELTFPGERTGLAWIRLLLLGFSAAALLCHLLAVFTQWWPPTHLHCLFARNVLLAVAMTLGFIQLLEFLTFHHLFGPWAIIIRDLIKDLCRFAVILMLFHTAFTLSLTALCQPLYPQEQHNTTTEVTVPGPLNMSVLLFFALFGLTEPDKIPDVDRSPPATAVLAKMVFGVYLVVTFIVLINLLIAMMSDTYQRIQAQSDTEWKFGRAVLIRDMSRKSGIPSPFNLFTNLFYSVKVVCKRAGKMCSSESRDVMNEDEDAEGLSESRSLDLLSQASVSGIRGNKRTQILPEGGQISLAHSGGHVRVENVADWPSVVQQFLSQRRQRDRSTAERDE
Procathepsin L, sequence (P07711 whole entry): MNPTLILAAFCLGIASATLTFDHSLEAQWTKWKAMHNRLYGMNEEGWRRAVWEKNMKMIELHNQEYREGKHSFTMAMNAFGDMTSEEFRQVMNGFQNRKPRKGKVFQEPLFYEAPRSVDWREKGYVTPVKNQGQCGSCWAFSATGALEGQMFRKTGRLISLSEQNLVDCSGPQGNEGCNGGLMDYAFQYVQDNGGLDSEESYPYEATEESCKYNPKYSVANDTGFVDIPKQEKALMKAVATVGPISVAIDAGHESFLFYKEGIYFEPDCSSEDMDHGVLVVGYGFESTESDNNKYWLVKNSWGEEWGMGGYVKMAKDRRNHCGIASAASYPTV
Lysosomal acid glucosylceramidase, sequence (P04062 whole entry): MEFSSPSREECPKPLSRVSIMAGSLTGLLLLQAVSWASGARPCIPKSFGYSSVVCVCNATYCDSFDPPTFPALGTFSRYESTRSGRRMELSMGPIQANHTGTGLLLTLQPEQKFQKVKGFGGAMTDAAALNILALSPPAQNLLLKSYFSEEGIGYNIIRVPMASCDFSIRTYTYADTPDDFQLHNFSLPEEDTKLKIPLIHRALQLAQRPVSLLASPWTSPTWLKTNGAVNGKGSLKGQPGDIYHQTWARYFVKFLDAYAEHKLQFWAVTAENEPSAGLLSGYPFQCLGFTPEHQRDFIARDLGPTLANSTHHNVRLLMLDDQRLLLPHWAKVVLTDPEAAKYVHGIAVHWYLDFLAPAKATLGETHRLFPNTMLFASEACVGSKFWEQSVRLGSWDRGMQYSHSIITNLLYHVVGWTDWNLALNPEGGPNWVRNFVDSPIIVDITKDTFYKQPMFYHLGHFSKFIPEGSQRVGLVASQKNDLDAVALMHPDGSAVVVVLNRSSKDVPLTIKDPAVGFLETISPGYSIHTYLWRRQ
Aspartyl aminopeptidase, sequence (Q8I2J3 whole entry): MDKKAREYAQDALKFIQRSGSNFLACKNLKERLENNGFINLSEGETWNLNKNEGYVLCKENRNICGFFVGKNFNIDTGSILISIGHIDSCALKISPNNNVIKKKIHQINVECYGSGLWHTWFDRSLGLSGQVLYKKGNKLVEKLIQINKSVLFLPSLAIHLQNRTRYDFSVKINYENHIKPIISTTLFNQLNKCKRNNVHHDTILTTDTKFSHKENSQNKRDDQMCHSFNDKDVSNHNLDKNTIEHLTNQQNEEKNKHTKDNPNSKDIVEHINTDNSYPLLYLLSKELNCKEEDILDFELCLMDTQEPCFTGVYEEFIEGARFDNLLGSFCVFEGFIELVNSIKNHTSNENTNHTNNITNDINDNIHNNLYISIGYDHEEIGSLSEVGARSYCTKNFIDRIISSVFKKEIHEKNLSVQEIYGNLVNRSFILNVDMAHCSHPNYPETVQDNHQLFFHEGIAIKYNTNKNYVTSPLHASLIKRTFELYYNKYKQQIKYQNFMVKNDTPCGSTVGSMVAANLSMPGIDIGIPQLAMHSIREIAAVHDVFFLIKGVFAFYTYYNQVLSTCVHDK
Nonstructural protein 1, sequence (Q194T2 whole entry, the tested form may be a part): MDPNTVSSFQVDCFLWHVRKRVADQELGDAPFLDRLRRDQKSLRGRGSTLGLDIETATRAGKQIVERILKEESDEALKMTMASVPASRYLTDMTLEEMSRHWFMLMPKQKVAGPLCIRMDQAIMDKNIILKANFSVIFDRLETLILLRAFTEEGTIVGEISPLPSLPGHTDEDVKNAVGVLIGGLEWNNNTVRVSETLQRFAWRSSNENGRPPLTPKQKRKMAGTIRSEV
Sphingosine 1-phosphate receptor 1, sequence (P21453 whole entry): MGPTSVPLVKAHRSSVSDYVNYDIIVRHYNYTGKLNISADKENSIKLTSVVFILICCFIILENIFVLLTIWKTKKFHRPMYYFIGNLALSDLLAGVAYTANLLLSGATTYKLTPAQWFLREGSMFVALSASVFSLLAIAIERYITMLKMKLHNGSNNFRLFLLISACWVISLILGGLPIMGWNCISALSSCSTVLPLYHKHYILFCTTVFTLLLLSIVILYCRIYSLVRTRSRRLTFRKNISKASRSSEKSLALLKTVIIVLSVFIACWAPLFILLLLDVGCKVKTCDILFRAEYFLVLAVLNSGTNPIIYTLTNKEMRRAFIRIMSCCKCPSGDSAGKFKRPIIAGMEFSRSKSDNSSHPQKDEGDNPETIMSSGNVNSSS
Aminopeptidase N, sequence (O96935 whole entry): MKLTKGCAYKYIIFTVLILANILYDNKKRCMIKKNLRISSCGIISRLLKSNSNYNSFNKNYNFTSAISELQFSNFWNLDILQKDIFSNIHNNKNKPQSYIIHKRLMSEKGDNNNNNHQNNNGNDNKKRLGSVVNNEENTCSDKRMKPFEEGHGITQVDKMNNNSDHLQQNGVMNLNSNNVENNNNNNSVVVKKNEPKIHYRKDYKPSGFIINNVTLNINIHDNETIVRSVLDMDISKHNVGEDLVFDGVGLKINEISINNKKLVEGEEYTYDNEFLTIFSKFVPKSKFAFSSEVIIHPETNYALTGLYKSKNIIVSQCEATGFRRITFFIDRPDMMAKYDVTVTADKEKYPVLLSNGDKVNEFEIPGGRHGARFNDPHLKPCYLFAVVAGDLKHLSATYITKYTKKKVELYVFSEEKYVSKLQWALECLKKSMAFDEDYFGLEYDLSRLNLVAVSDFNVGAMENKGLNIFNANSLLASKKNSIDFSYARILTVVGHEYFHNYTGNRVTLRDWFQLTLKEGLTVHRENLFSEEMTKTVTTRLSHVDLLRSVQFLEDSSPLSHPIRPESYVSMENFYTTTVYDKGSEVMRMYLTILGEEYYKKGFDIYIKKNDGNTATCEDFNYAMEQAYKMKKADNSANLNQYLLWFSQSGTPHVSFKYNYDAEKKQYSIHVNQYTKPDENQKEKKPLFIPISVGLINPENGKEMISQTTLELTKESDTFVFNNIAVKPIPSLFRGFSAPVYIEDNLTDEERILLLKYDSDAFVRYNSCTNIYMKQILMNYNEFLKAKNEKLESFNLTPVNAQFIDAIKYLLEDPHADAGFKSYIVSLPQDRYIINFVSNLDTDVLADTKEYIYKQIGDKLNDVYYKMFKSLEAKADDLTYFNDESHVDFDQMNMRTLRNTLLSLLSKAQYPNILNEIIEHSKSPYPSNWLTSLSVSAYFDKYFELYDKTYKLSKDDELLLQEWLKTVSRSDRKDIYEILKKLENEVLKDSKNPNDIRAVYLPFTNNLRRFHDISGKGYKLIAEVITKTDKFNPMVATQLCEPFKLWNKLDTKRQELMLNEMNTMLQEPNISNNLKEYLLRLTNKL

CCCCOc1nc2ccccc2nc1C(C#N)S(=O)(=O)c1ccccc1 (stereo unspecified)
EC50 [1]: > 50 µM (not active)

Cc1ccc(S(=O)(=O)c2c(C)cc(C)nc2Oc2cccc(C(F)(F)F)c2)cc1
EC50 [2]: 7.06 µM (active) | EC50 [3]: > 29.9 µM (not active) | EC50 [4]: 5.23 µM (active)

O=C1Nn2c(nc3c(c2=O)CCC3)/C1=N/Nc1cccc(Cl)c1
IC50 [5]: 83.9 µM (active) | IC50 [6]: > 100 µM (active) | IC50 [7]: 6.15 µM (active)

COc1cccc(-n2nnnc2S(C)(=O)=O)c1
IC50 [8]: 23.6 µM (not active) | IC50 [9]: 1.26 µM (active) | AC50 [10]: 3.14 µM (active) | EC50 [11]: 1.76 µM (active) | EC50 [12]: 6.59 µM (active) | EC50 [13]: 1.1 µM (active) | EC50 [14]: 3.96 µM (inconclusive)

COCCn1c(N/N=C(C)/C=C/c2ccccc2)nc2c1c(=O)[nH]c(=O)n2C
EC50 [15]: > 100 µM (not active)

O=c1[nH]c(CSc2nnc[nH]2)nc2ccccc12
IC50 [16]: > 59.6 µM (not active) | IC50 [17]: 0.833 µM (active)

COc1ccc(S(=O)(=O)N2CCCCCC2)cc1N(C)S(=O)(=O)c1ccc(C)cc1
EC50 [3]: > 29.9 µM (not active) | EC50 [4]: 6.7 µM (active)

CCn1cc(C(=O)O)c(=O)c2cc(F)c(N3CCNCC3)cc21 [NORFLOXACIN]
AC50 [18]: 1.33 µM (active) | EC50 [19]: > 50 µM (active)

O=C(/C=C(\O)c1ccccc1)C(=O)NNC(=O)c1ccccc1
EC50 [19]: > 50 µM (active)

COc1ccc(S(=O)(=O)C(C#N)c2nc3ccccc3nc2N2CCCCC2)cc1 (stereo unspecified)
EC50 [1]: > 50 µM (not active)

CCCCN1CC(=O)C(c2nc3ccccc3[nH]2)=C1N
EC50 [15]: > 100 µM (not active)

COC(=O)CN(n1cnnc1)S(=O)(=O)c1ccc(C)cc1
IC50 [16]: > 59.6 µM (not active) | IC50 [17]: 0.351 µM (active)
